Measured values published in ChEMBL document CHEMBL3885861, “Open TG-GATES”.

Species on record: Rattus norvegicus
Assay: Open TG-GATES - Regimen: Single
Format: toxicity, organism-based, Sprague-Dawley
Parameters: regimen Single, gender Male, age 6 weeks
Details: in vivo, po, 1000 mg/kg, route gavage, dose level Middle; for APTT / Bas / Eos / Fbg / Hb / Ht / Lym / MCH / MCHC / MCV / Mono / Neu / Plat / RBC / Ret / WBC: tissue Blood; for KIDNEY_L / KIDNEY_R / KIDNEY_TOTAL: tissue Kidney; for LIVER: tissue Liver; for ALP / ALT / AST / BUN / CRE / Ca / Cl / DBIL / GLC / IP / K / LDH / Na / PL / RALB / TBIL / TC / TG / TP / gamma-GTP: tissue Plasma

CC(=O)Oc1ccccc1C(=O)O [ASPIRIN]
TERMINAL_BW (3 h): 217.1 g
APTT (3 h): 19 s
Bas (3 h): 0%
Eos (3 h): 1%
Fbg (3 h): 217.4 mg/dL
Hb (3 h): 13.6 g/dL
Ht (3 h): 37.9%
Lym (3 h): 69.4%
MCH (3 h): 21.9 pg
MCHC (3 h): 35.9%
MCV (3 h): 60.8 fL
Mono (3 h): 2.8%
Neu (3 h): 25.4%
Plat (3 h): 121 x10_4/uL
RBC (3 h): 624.8 x10_4/ul
Ret (3 h): 8%
WBC (3 h): 72.1 x10_2/uL
KIDNEY_L (3 h): 0.9 g
KIDNEY_R (3 h): 1 g
KIDNEY_TOTAL (3 h): 1.9 g
LIVER (3 h): 8.8 g
ALP (3 h): 835 IU/L
ALT (3 h): 44.4 IU/L
AST (3 h): 79 IU/L
BUN (3 h): 15.8 mg/dL
CRE (3 h): 0.4 mg/dL
Ca (3 h): 8.7 mg/dL
Cl (3 h): 104 meq/L
DBIL (3 h): 0.06 mg/dL
GLC (3 h): 203.8 mg/dL
IP (3 h): 8.3 mg/dL
K (3 h): 3.4 meq/L
LDH (3 h): 205.8 IU/L
Na (3 h): 141 meq/L
PL (3 h): 88.8 mg/dL
RALB (3 h): 3.4 g/dL
TBIL (3 h): 0.1 mg/dL
TC (3 h): 54.6 mg/dL
TG (3 h): 26.2 mg/dL
TP (3 h): 5.5 g/dL
gamma-GTP (3 h): 1 IU/L
TERMINAL_BW (6 h): 218.6 g
APTT (6 h): 19.9 s
Bas (6 h): 0%
Eos (6 h): 0.6%
Fbg (6 h): 233.4 mg/dL
Hb (6 h): 13.7 g/dL
Ht (6 h): 37.9%
Lym (6 h): 66%
MCH (6 h): 21.5 pg
MCHC (6 h): 36.2%
MCV (6 h): 59.5 fL
Mono (6 h): 3.4%
Neu (6 h): 29%
Plat (6 h): 132.5 x10_4/uL
RBC (6 h): 637.2 x10_4/ul
Ret (6 h): 7.9%
WBC (6 h): 97.1 x10_2/uL
KIDNEY_L (6 h): 1 g
KIDNEY_R (6 h): 0.9 g
KIDNEY_TOTAL (6 h): 1.9 g
LIVER (6 h): 8.5 g
ALP (6 h): 820.8 IU/L
ALT (6 h): 35.4 IU/L
AST (6 h): 78.2 IU/L
BUN (6 h): 14.8 mg/dL
CRE (6 h): 0.4 mg/dL
Ca (6 h): 8.3 mg/dL
Cl (6 h): 104.2 meq/L
DBIL (6 h): 0.056 mg/dL
GLC (6 h): 209.4 mg/dL
IP (6 h): 8.1 mg/dL
K (6 h): 3.3 meq/L
LDH (6 h): 236.6 IU/L
Na (6 h): 140.2 meq/L
PL (6 h): 108 mg/dL
RALB (6 h): 3.6 g/dL
TBIL (6 h): 0.098 mg/dL
TC (6 h): 68.6 mg/dL
TG (6 h): 16.8 mg/dL
TP (6 h): 5.7 g/dL
gamma-GTP (6 h): 1 IU/L
TERMINAL_BW (9 h): 217.1 g
APTT (9 h): 21.6 s
Bas (9 h): 0%
Eos (9 h): 1%
Fbg (9 h): 232.4 mg/dL
Hb (9 h): 13.7 g/dL
Ht (9 h): 38.1%
Lym (9 h): 69.4%
MCH (9 h): 21.4 pg
MCHC (9 h): 35.8%
MCV (9 h): 59.7 fL
Mono (9 h): 2.4%
Neu (9 h): 27%
Plat (9 h): 128.3 x10_4/uL
RBC (9 h): 638.6 x10_4/ul
Ret (9 h): 7.8%
WBC (9 h): 93.3 x10_2/uL
KIDNEY_L (9 h): 1 g
KIDNEY_R (9 h): 0.9 g
KIDNEY_TOTAL (9 h): 1.9 g
LIVER (9 h): 7.5 g
ALP (9 h): 903.8 IU/L
ALT (9 h): 33.2 IU/L
AST (9 h): 79.8 IU/L
BUN (9 h): 13.2 mg/dL
CRE (9 h): 0.4 mg/dL
Ca (9 h): 8.5 mg/dL
Cl (9 h): 106.4 meq/L
DBIL (9 h): 0.05 mg/dL
GLC (9 h): 202.4 mg/dL
IP (9 h): 7.7 mg/dL
K (9 h): 3.2 meq/L
LDH (9 h): 227.2 IU/L
Na (9 h): 140.6 meq/L
PL (9 h): 102.4 mg/dL
RALB (9 h): 3.5 g/dL
TBIL (9 h): 0.098 mg/dL
TC (9 h): 62.8 mg/dL
TG (9 h): 9.2 mg/dL
TP (9 h): 5.5 g/dL
gamma-GTP (9 h): 1.2 IU/L
TERMINAL_BW (24 h): 217 g
APTT (24 h): 29.4 s
Bas (24 h): 0.4%
Eos (24 h): 1%
Fbg (24 h): 225 mg/dL
Hb (24 h): 14.4 g/dL
Ht (24 h): 39.3%
Lym (24 h): 72%
MCH (24 h): 22.1 pg
MCHC (24 h): 36.6%
MCV (24 h): 60.4 fL
Mono (24 h): 2.2%
Neu (24 h): 24.2%
Plat (24 h): 131.6 x10_4/uL
RBC (24 h): 650.8 x10_4/ul
Ret (24 h): 7.1%
WBC (24 h): 89.6 x10_2/uL
KIDNEY_L (24 h): 0.9 g
KIDNEY_R (24 h): 0.9 g
KIDNEY_TOTAL (24 h): 1.9 g
LIVER (24 h): 8.1 g
ALP (24 h): 933.8 IU/L
ALT (24 h): 38 IU/L
AST (24 h): 110 IU/L
BUN (24 h): 14.8 mg/dL
CRE (24 h): 0.4 mg/dL
Ca (24 h): 8.7 mg/dL
Cl (24 h): 105.6 meq/L
DBIL (24 h): 0.052 mg/dL
GLC (24 h): 214 mg/dL
IP (24 h): 7.3 mg/dL
K (24 h): 3.5 meq/L
LDH (24 h): 227.6 IU/L
Na (24 h): 140.8 meq/L
PL (24 h): 75.4 mg/dL
RALB (24 h): 3.5 g/dL
TBIL (24 h): 0.1 mg/dL
TC (24 h): 40.2 mg/dL
TG (24 h): 23.4 mg/dL
TP (24 h): 5.7 g/dL
gamma-GTP (24 h): 1.6 IU/L
